Data reported in ChEMBL document CHEMBL1201862, “PubChem BioAssay data set” (2004).
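Interpolation was linear, between the two tested concentrations surrounding the appropriate level; five concentrations were tested over 48 hours in 96-well plates. Abbreviation: GI50, concentration required for 50% inhibition of growth.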 The source made the active and inactive calls. Rule as the data show it: active = GI50 up to about 1.1 µM and inactive = higher. Where a SMILES comes first, the peptide text is derived from it. The star is where a group is joined. Boc = CC(C)(C)OC(=O)*

Assays:
Assay in all cases: NCI-60 cell line screen, 48 h
OVCAR-8 = system: OVCAR-8
Malme-3M = system: Malme-3M
HL-60 = system: HL-60
COLO 205 = system: COLO 205
UACC-257 = system: UACC-257
UACC-62 = system: UACC-62
NCI/ADR-RES = system: NCI/ADR-RES
786-0 = system: 786-0
SK-OV-3 = system: SK-OV-3
SF-268 = system: SF-268
ACHN = system: ACHN
RXF 393 = system: RXF 393
CCRF-CEM = system: CCRF-CEM
NCI-H226 = system: NCI-H226
OVCAR-5 = system: OVCAR-5
SR = system: SR
OVCAR-4 = system: OVCAR-4
SK-MEL-2 = system: SK-MEL-2
SF-539 = system: SF-539
LOX IMVI = system: LOX IMVI

Row | SMILES | GI50 (OVCAR-8) | GI50 (Malme-3M) | GI50 (HL-60) | GI50 (COLO 205) | GI50 (UACC-257) | GI50 (UACC-62) | GI50 (NCI/ADR-RES) | GI50 (786-0) | GI50 (SK-OV-3) | GI50 (SF-268) | GI50 (ACHN) | GI50 (RXF 393) | GI50 (CCRF-CEM) | GI50 (NCI-H226) | GI50 (OVCAR-5) | GI50 (SR) | GI50 (OVCAR-4) | GI50 (SK-MEL-2) | GI50 (SF-539) | GI50 (LOX IMVI)
1 | CCN(CC)CCN1C(=O)c2cccc3cc(N)cc(c23)C1=O | 6.68 µM (inactive) | 13 µM (inactive) | 16.6 µM (inactive) | 4.41 µM (inactive) | 10.7 µM (inactive) | 11.8 µM (inactive) | 7.21 µM (inactive) | 5.32 µM (inactive) | 8.53 µM (inactive) | 12.6 µM (inactive) | 4.94 µM (inactive) | 14.2 µM (inactive) | 6.28 µM (inactive) | 16.6 µM (inactive) | 3.06 µM (inactive) | 3.32 µM (inactive) | 12.4 µM (inactive) | 18.9 µM (inactive) | 5.09 µM (inactive) | 
2 | c1ccc(/C(=N/Nc2ccccn2)c2ncccn2)cc1 | 0.369 µM (active) | 0.538 µM (active) | 0.0524 µM (active) | < 0.0139 µM (active) | 0.729 µM (active) | 2.82 µM (inactive) | 1.43 µM (inactive) | 0.8 µM (active) | 2.3 µM (inactive) | 0.855 µM (active) | 0.112 µM (active) | 11.3 µM (inactive) | < 0.0183 µM (active) | 0.201 µM (active) | 2.77 µM (inactive) | 0.929 µM (active) | 1.28 µM (inactive) | > 28 µM (inactive) | 3.52 µM (inactive) | 
3 | COc1ccc(/C=C2\CCS(=O)(=O)c3ccccc3C2=O)cc1 | 22.2 µM (inactive) |  | 21.5 µM (inactive) | 15.2 µM (inactive) | 23.3 µM (inactive) | 20 µM (inactive) | 20.1 µM (inactive) | 18.3 µM (inactive) | 38.3 µM (inactive) | 30.3 µM (inactive) | 24.4 µM (inactive) | 22.6 µM (inactive) | 20 µM (inactive) | 20.2 µM (inactive) | 26.7 µM (inactive) | 8.55 µM (inactive) | 24.5 µM (inactive) | 31.4 µM (inactive) | 21.1 µM (inactive) | 20.4 µM (inactive)
4 | CCOC(=O)/C(=C\c1c[nH]c2ccccc12)P(=O)(OCC)OCC | 22.3 µM (inactive) | 18.9 µM (inactive) | 37.5 µM (inactive) | 20.7 µM (inactive) | 45.3 µM (inactive) | 32.9 µM (inactive) | 25.3 µM (inactive) | 31.3 µM (inactive) | 30.5 µM (inactive) | 29.5 µM (inactive) | 41.4 µM (inactive) | 33.6 µM (inactive) | 16.7 µM (inactive) | 28.3 µM (inactive) | 26.2 µM (inactive) | 25.1 µM (inactive) | 23.9 µM (inactive) |  | 21.9 µM (inactive) | 20.6 µM (inactive)
5 | CNC1=C(C)C(=O)C(O)=C([C@H](C)CCC=C(C)C)C1=O | 10.7 µM (inactive) | 16 µM (inactive) | 2.4 µM (inactive) | 25.4 µM (inactive) | 32.7 µM (inactive) | 13 µM (inactive) | 5.21 µM (inactive) | 24.9 µM (inactive) | 23.9 µM (inactive) | 19.1 µM (inactive) | 11.2 µM (inactive) | 30.7 µM (inactive) | 3.95 µM (inactive) | 22.1 µM (inactive) | 77.8 µM (inactive) | 7.38 µM (inactive) | 11.7 µM (inactive) | 17.7 µM (inactive) |  | 14.7 µM (inactive)
6 | C=C(Cl)c1c(OC)cccc1OCc1ccccc1 | > 100 µM (inactive) | > 100 µM (inactive) | 29.2 µM (inactive) | 98.2 µM (inactive) | 20 µM (inactive) | 30.4 µM (inactive) | > 100 µM (inactive) | > 100 µM (inactive) | > 100 µM (inactive) | > 100 µM (inactive) | 90.8 µM (inactive) | 16.7 µM (inactive) | 75 µM (inactive) | 48.2 µM (inactive) | > 100 µM (inactive) | 26.8 µM (inactive) | 98.9 µM (inactive) | > 100 µM (inactive) | > 100 µM (inactive) | 69.7 µM (inactive)
7 | S=C1SC(=N\c2ccccc2)/C(=N/c2ccccc2)N1c1ccc2ccccc2c1 | > 100 µM (inactive) | > 100 µM (inactive) | > 100 µM (inactive) | > 100 µM (inactive) |  | > 100 µM (inactive) | > 100 µM (inactive) |  | > 100 µM (inactive) |  |  | 7.26 µM (inactive) | > 100 µM (inactive) | > 100 µM (inactive) | > 100 µM (inactive) | > 100 µM (inactive) | 80.7 µM (inactive) | > 100 µM (inactive) |  | 
8 | CCN1C(NN)=NS(=O)(=O)c2ccccc21 | > 100 µM (inactive) |  | > 100 µM (inactive) | > 100 µM (inactive) | > 100 µM (inactive) | > 100 µM (inactive) | > 100 µM (inactive) | > 100 µM (inactive) | > 100 µM (inactive) | > 100 µM (inactive) | > 100 µM (inactive) | > 100 µM (inactive) | > 100 µM (inactive) | > 100 µM (inactive) | > 100 µM (inactive) | > 100 µM (inactive) | > 100 µM (inactive) | > 100 µM (inactive) | > 100 µM (inactive) | > 100 µM (inactive)
9 | COC(=O)N1CC[C@@H]2CCC=C(c3cccc4c3OCO4)[C@@H]21 | > 100 µM (inactive) | > 100 µM (inactive) | 30.9 µM (inactive) | > 100 µM (inactive) | 78.5 µM (inactive) | 81.7 µM (inactive) | 54.2 µM (inactive) | > 100 µM (inactive) | > 100 µM (inactive) | > 100 µM (inactive) | > 100 µM (inactive) | > 100 µM (inactive) | 49.3 µM (inactive) | > 100 µM (inactive) | > 100 µM (inactive) | > 100 µM (inactive) | 45.4 µM (inactive) | > 100 µM (inactive) | > 100 µM (inactive) | > 100 µM (inactive)
10 | C[C@@H]1C[C@@H](O)[C@@]2(O)C13CC(=O)OC(C3)[C@@H](C)[C@@]2(C)CO (stereo partly specified) | > 100 µM (inactive) | > 100 µM (inactive) | > 100 µM (inactive) | > 100 µM (inactive) | > 100 µM (inactive) | > 100 µM (inactive) | > 100 µM (inactive) | > 100 µM (inactive) | > 100 µM (inactive) | > 100 µM (inactive) | > 100 µM (inactive) | > 100 µM (inactive) |  | > 100 µM (inactive) | > 100 µM (inactive) | > 100 µM (inactive) | > 100 µM (inactive) | > 100 µM (inactive) | > 100 µM (inactive) | > 100 µM (inactive)
11 | CCOC(=O)NC(Nc1ccc(S(=O)(=O)Nc2ccc(OC)nn2)cc1)(C(F)(F)F)C(F)(F)F | 38.2 µM (inactive) | 20.2 µM (inactive) | 26.7 µM (inactive) | 21.9 µM (inactive) | 33.1 µM (inactive) | 45 µM (inactive) | 23.9 µM (inactive) | 20.9 µM (inactive) | 52 µM (inactive) | 36.1 µM (inactive) | 27 µM (inactive) | 18.2 µM (inactive) | 26.5 µM (inactive) | 23 µM (inactive) | 32.2 µM (inactive) | 24.7 µM (inactive) | 26.7 µM (inactive) |  | 20.6 µM (inactive) | 29.5 µM (inactive)
12 | O=C(O)C1(Cc2ccccc2)Cc2ccccc2C1 | > 100 µM (inactive) | > 100 µM (inactive) | > 100 µM (inactive) | > 100 µM (inactive) | > 100 µM (inactive) | > 100 µM (inactive) | > 100 µM (inactive) |  | > 100 µM (inactive) | > 100 µM (inactive) | > 100 µM (inactive) | 69.7 µM (inactive) | > 100 µM (inactive) | > 100 µM (inactive) | > 100 µM (inactive) | > 100 µM (inactive) | > 100 µM (inactive) | > 100 µM (inactive) | > 100 µM (inactive) | > 100 µM (inactive)
13 | CC1=C(C(=O)OC2CC3CCC2(C)C3(C)C)C2Nc3ccccc3N(C)C2O1 (stereo unspecified) | 2.37 µM (inactive) |  | 2.1 µM (inactive) | 0.918 µM (active) | 1.79 µM (inactive) | 1.98 µM (inactive) | 2.99 µM (inactive) | 2.51 µM (inactive) | 4.43 µM (inactive) | 4.8 µM (inactive) | 2.74 µM (inactive) | 2.63 µM (inactive) | 2.04 µM (inactive) | 4.3 µM (inactive) | 7.1 µM (inactive) | 1.19 µM (inactive) | 1.67 µM (inactive) | 2.35 µM (inactive) | 3.04 µM (inactive) | 1.71 µM (inactive)
14 | Cc1oc(N)c(S(=O)(=O)c2ccc(Cl)cc2)c1C | 50.5 µM (inactive) | 29.9 µM (inactive) | 88.9 µM (inactive) | > 10 µM (inactive) | 40.2 µM (inactive) | 37.9 µM (inactive) | 34.9 µM (inactive) | 73.8 µM (inactive) | 42.6 µM (inactive) | 43.1 µM (inactive) | 37 µM (inactive) | 30.8 µM (inactive) | 78.9 µM (inactive) | 53.1 µM (inactive) | > 100 µM (inactive) | 86.3 µM (inactive) | 21.7 µM (inactive) | 28 µM (inactive) | 25.8 µM (inactive) | 
15 | CCOC(=O)C(CC(C)C)NC(=O)C(Cc1ccccc1)NC(=O)CNC(=O)OC(C)(C)C (stereo not drawn) (Boc-Gly-Phe-Leu-OEt; configuration not given here) | 21.7 µM (inactive) | 19.9 µM (inactive) | 2.42 µM (inactive) |  | 19.7 µM (inactive) | 18.4 µM (inactive) | 80.2 µM (inactive) | 20.9 µM (inactive) | 20.8 µM (inactive) | 21 µM (inactive) | 17.1 µM (inactive) | 25.8 µM (inactive) | 16.6 µM (inactive) | 17.3 µM (inactive) |  | 15.8 µM (inactive) | 36.9 µM (inactive) | 28.9 µM (inactive) | 13.5 µM (inactive) | 18.2 µM (inactive)
